Measured values: PubChem BioAssay AID330 (DTP/NCI, 2004)
Where “and” joins values, the source holds several entries; their conditions need not be identical. Equal values may be shown once. Inconclusive results and toxic doses are left out. Rule for the calls: active = survival T/C of 150% or more; inactive = T/C below 125% in these data.

Tested on: P388 leukemia ip, CD2F1 mice, survival T/C
Experiment: NCI In Vivo Anticancer Drug Screen. Data for tumor model P388 Leukemia (intraperitoneal) in CD2F1 (CDF1) mice
Details: endpoint: median survival time, higher = longer survival
Procedure, shortened: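 Mice carrying the transplanted tumor received test compound or vehicle. Survival was recorded in each group, and the value is the treated-group measurement divided by that of the vehicle-treated control group.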

[1] = dose: 100.0 mg/kg/injection, schedule: Q01DX009 (ip), vehicle: saline with Tween-80
[2] = dose: 200.0 mg/kg/injection, schedule: Q01DX009 (ip), vehicle: saline with Tween-80
[3] = dose: 50.0 mg/kg/injection, schedule: Q01DX009 (ip), vehicle: saline with Tween-80
[4] = dose: 60.0 mg/kg/injection, schedule: Q01DX005 (ip), vehicle: Klucel (hydroxypropylcellulose) (HPC)
[5] = dose: 120.0 mg/kg/injection, schedule: Q01DX005 (ip), vehicle: Klucel (hydroxypropylcellulose) (HPC)

Measured: T/C

NC(N)=N/N=C/C(Cl)Cl
inactive: dose: 25.0 mg/kg/injection, schedule: Q01DX009 (ip), vehicle: saline 109 % of control | dose: 25.0 mg/kg/injection, schedule: Q04DX003 (ip), vehicle: saline 100 % of control | dose: 50.0 mg/kg/injection, schedule: Q01DX009 (ip), vehicle: saline 100 % of control | dose: 50.0 mg/kg/injection, schedule: Q04DX003 (ip), vehicle: saline 100 % of control | dose: 100.0 mg/kg/injection, schedule: Q01DX009 (ip), vehicle: saline 118 % of control | dose: 100.0 mg/kg/injection, schedule: Q04DX003 (ip), vehicle: saline 100 % of control and 95 % of control

O=CNc1ccc(O)cc1
inactive: [1] 100 % of control | [2] 109 % of control | dose: 400.0 mg/kg/injection, schedule: Q01DX009 (ip), vehicle: saline with Tween-80 118 % of control

Cc1[nH]c2ccc(N(C)C)cc2c(=O)c1CN1CCN(C)CC1
inactive: [3] 111 % of control | [1] 111 % of control | [2] 110 % of control

O=c1[nH]c(=S)[nH]cc1-c1ccc(Cl)c(Cl)c1
inactive: dose: 50.0 mg/kg/injection, schedule: Q01DX009 (ip), vehicle: suspension in saline 105 % of control | dose: 100.0 mg/kg/injection, schedule: Q01DX009 (ip), vehicle: suspension in saline 104 % of control | dose: 200.0 mg/kg/injection, schedule: Q01DX009 (ip), vehicle: suspension in saline 106 % of control

CC(=O)OCC1OC(n2nnc(CCl)c2CCl)C(OC(C)=O)C(OC(C)=O)C1OC(C)=O (stereo not drawn)
inactive: [3] 110 % of control | [1] 98 % of control | [2] 117 % of control

O=C(Nc1ccc(Cl)cc1)Nc1nnc2nc(C3(c4nc5nnc(NC(=O)Nc6ccc(Cl)cc6)n5[nH]c4=O)Cc4ccccc4C3=O)c(=O)[nH]n12
inactive: dose: 60.0 mg/kg/injection, schedule: Q01DX005 (ip), vehicle: saline with Tween-80 103 % of control | dose: 120.0 mg/kg/injection, schedule: Q01DX005 (ip), vehicle: saline with Tween-80 107 % of control | dose: 240.0 mg/kg/injection, schedule: Q01DX005 (ip), vehicle: saline with Tween-80 98 % of control

CC(=O)NC(C=O)C(O)C(O)C(O)C(=O)O (stereo not drawn) (tested in a mixture with another compound)
inactive: dose: 6.25 mg/kg/injection, schedule: Q01DX009 (ip), vehicle: Klucel (hydroxypropylcellulose) (HPC) 101 % of control | dose: 12.5 mg/kg/injection, schedule: Q01DX009 (ip), vehicle: Klucel (hydroxypropylcellulose) (HPC) 94 % of control | dose: 25.0 mg/kg/injection, schedule: Q01DX009 (ip), vehicle: Klucel (hydroxypropylcellulose) (HPC) 92 % of control

CC1(C)SC2C(NC(=O)C(N)c3ccccc3)C(=O)N2C1C(=O)O (stereo not drawn)
inactive: dose: 100.0 mg/kg/injection, schedule: Q04DX003 (ip), vehicle: saline with Tween-80 95 % of control | dose: 150.0 mg/kg/injection, schedule: Q01DX009 (ip), vehicle: saline with Tween-80 100 % of control | dose: 200.0 mg/kg/injection, schedule: Q04DX003 (ip), vehicle: saline with Tween-80 100 % of control | dose: 300.0 mg/kg/injection, schedule: Q01DX009 (ip), vehicle: saline with Tween-80 109 % of control | dose: 400.0 mg/kg/injection, schedule: Q04DX003 (ip), vehicle: saline with Tween-80 100 % of control | dose: 600.0 mg/kg/injection, schedule: Q01DX009 (ip), vehicle: saline with Tween-80 109 % of control

CC(=NC1CCCCC1)Nc1ccc(NC(=O)c2ccc(C(=O)Nc3ccc(NC(C)=NC4CCCCC4)cc3)cc2)cc1
inactive: dose: 25.0 mg/kg/injection, schedule: Q01DX005 (ip), vehicle: Klucel (hydroxypropylcellulose) (HPC) 98 % of control | dose: 50.0 mg/kg/injection, schedule: Q01DX005 (ip), vehicle: Klucel (hydroxypropylcellulose) (HPC) 104 % of control | dose: 100.0 mg/kg/injection, schedule: Q01DX005 (ip), vehicle: Klucel (hydroxypropylcellulose) (HPC) 98 % of control | dose: 200.0 mg/kg/injection, schedule: Q01DX005 (ip), vehicle: Klucel (hydroxypropylcellulose) (HPC) 102 % of control

CN(C)/C=C1\C(C(C)(C)C)=CC(C(C)(C)C)=C1N=O
inactive: [4] 105 % of control | [5] 104 % of control

NC1=C(O)C(=O)C(c2ccc3c(c2)OCO3)O1 (stereo not drawn)
inactive: [4] 92 % of control | [5] 95 % of control | dose: 240.0 mg/kg/injection, schedule: Q01DX005 (ip), vehicle: Klucel (hydroxypropylcellulose) (HPC) 91 % of control

CC(=O)OC1CC(C)OC(OC2CCC3(C=O)C4C(O)C(=O)[C@]5(C)C(c6ccc(=O)oc6)CC[C@]5(O)C4CC[C@]3(O)C2)C1OC(C)=O (stereo partly drawn)
inactive: dose: 0.18 mg/kg/injection, schedule: Q01DX009 (ip), vehicle: distilled water + Tween-80 + alcohol 90 % of control | dose: 0.35 mg/kg/injection, schedule: Q01DX009 (ip), vehicle: distilled water + Tween-80 + alcohol 107 % of control | dose: 0.71 mg/kg/injection, schedule: Q01DX009 (ip), vehicle: distilled water + Tween-80 + alcohol 100 % of control | dose: 1.42 mg/kg/injection, schedule: Q01DX009 (ip), vehicle: distilled water + Tween-80 + alcohol 109 % of control | dose: 2.84 mg/kg/injection, schedule: Q01DX009 (ip), vehicle: distilled water + Tween-80 + alcohol 100 % of control

O=c1[nH]cc(Br)c2ccccc12
inactive: dose: 25.0 mg/kg/injection, schedule: Q04DX002 (ip), vehicle: saline with Tween-80 92 % of control | dose: 50.0 mg/kg/injection, schedule: Q04DX002 (ip), vehicle: saline with Tween-80 93 % of control | dose: 100.0 mg/kg/injection, schedule: Q04DX002 (ip), vehicle: saline with Tween-80 96 % of control

O=C1CCCc2[nH]c3ccc(F)cc3c21
inactive: dose: 50.0 mg/kg/injection, schedule: Q01DX005 (ip), vehicle: saline with Tween-80 91 % of control | dose: 100.0 mg/kg/injection, schedule: Q01DX005 (ip), vehicle: saline with Tween-80 90 % of control | dose: 200.0 mg/kg/injection, schedule: Q01DX005 (ip), vehicle: saline with Tween-80 88 % of control

CC[N+](C)(CC)CCNc1cc2c(c3c(=O)c4ccccc4sc13)CCCC2
inactive: dose: 25.0 mg/kg/injection, schedule: Q01DX005 (ip), vehicle: distilled water + Tween-80 119 % of control | dose: 50.0 mg/kg/injection, schedule: Q01DX005 (ip), vehicle: distilled water + Tween-80 106 % of control | dose: 100.0 mg/kg/injection, schedule: Q01DX005 (ip), vehicle: distilled water + Tween-80 101 % of control
